Data published in ChEMBL document CHEMBL1145355, “From selective substrate analogue factor Xa inhibitors to dual inhibitors of thrombin and factor Xa. Part 3” (Bioorg Med Chem Lett, 2007).

Columns and labels:
Prothrombin = Prothrombin (Homo sapiens, UniProt P00734); assay: Inhibition of thrombin
[1] = target: Urokinase-type plasminogen activator (Homo sapiens, UniProt P00749); assay: Inhibition of uPA
[2] = Inhibition of Plasmin; design: species or system Homo sapiens
Trypsin = Trypsin (Homo sapiens, UniProt P07477+P07478+P35030); assay: Inhibition of trypsin; type: protein assay
[3] = Anticoagulant activity in human plasma by aPTT assay; type: functional
Plasma [4] = assay: Anticoagulant activity in human plasma by TT assay; type: functional
Plasma [5] = assay: Anticoagulant activity in human plasma by PT assay; type: functional
Coagulation factor X = Coagulation factor X (Homo sapiens, UniProt P00742)
[6] = Permeability across Caco-2 cell membrane; type: ADME, cell-based; conditions: human
[7] = Half life in iv dosed rat; type: ADME, organism-based; conditions: in vivo
[8] = Bioavailability in rat at 5 mg/kg po; type: ADME, organism-based; conditions: in vivo
Rattus norvegicus = assay: Clearance in bile of rat at 5 mg/kg po; type: ADME, organism-based; design: dose 5 mg/kg, route oral; conditions: in vivo
[9] = % of dose in urine of rat at 5 mg/kg po; type: ADME, organism-based; design: dose 5 mg/kg, route oral; conditions: read-out: Compound in urine

Chain of Coagulation factor X (P00742 41-179 limits assumed): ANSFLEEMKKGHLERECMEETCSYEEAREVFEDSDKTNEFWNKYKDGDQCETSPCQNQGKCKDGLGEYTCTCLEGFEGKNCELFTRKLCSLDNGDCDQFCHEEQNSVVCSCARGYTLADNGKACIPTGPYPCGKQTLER
Chain of Coagulation factor X (P00742 235-488 limits assumed): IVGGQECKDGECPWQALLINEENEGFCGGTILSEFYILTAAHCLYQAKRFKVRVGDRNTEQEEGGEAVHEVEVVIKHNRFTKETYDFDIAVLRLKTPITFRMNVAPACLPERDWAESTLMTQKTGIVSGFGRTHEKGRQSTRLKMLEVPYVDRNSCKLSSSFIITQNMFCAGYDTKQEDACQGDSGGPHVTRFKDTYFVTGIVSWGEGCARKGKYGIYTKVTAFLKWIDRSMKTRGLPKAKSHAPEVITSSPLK

Structure (SMILES) | Ki (Prothrombin) [µM] | Ki [1] [µM] | Ki [2] [µM] | Ki (Trypsin) [µM] | Ki (Coagulation factor X) [nM] | Papp [6] [×10⁻⁶ cm/s] | half-life [7] [min] | bioavailability [8] [%] | CL_biliary (Rattus norvegicus) [%] | dose excreted [9] [%] | IC200 [3] [µM] | IC200 (Plasma [4]) [µM] | IC200 (Plasma [5]) [µM]
CCCS(=O)(=O)NC(CCc1cccc[n+]1[O-])C(=O)NCC(=O)NCc1cc(Cl)ccc1CN (stereo unspecified) | 2.7 | > 5 | > 5 | > 0.5 | – | – | – | – | – | – | 0.45 | 6.5 | –
NCc1ccc(Cl)cc1CNC(=O)[C@@H]1CCCN1C(=O)[C@@H](CCc1ccc(O)cc1)NCC(=O)O | 0.0032 | > 5 | > 5 | > 0.5 | – | – | – | – | – | – | 0.47 | 0.15 | 0.73
CCOC(=O)CN[C@H](CCc1cccc[n+]1[O-])C(=O)N1CCC[C@H]1C(=O)NCc1cc(Cl)ccc1CN | – | > 5 | > 5 | > 0.5 | 1.7 | – | – | – | – | – | 0.18 | 0.1 | –
O=C(CNC(=O)[C@@H](CCc1cccc[n+]1[O-])NS(=O)(=O)Cc1ccccc1)NCCc1ccncc1 | > 1000 | > 5 | > 5 | > 0.5 | 3900 | – | – | – | – | – | – | – | –
NCc1ccc(Cl)cc1CNC(=O)[C@@H]1CCCN1C(=O)[C@@H](CCc1cccc[n+]1[O-])NCC(=O)OC1CCCCC1 | 0.009 | > 5 | > 5 | > 0.5 | – | – | – | – | – | – | – | – | –
CCOC(=O)CC(=O)NC(CCc1cccc[n+]1[O-])C(=O)NCC(=O)NCc1cc(Cl)ccc1CN (stereo unspecified) | 40 | > 5 | > 5 | > 0.5 | 200 | – | – | – | – | – | – | – | –
C[C@H](NC(=O)[C@@H](CCc1ccccn1)NS(=O)(=O)Cc1ccccc1)C(=O)NCc1cc(Cl)ccc1CN | 0.024 | > 5 | > 5 | > 0.5 | 0.084 | – | – | – | – | – | – | – | –
NCc1ccc(Cl)cc1CNC(=O)CNC(=O)C(CCc1cccc[n+]1[O-])NS(=O)(=O)CC(=O)O (stereo unspecified) | 8.3 | > 5 | > 5 | > 0.5 | – | – | – | – | – | – | 0.89 | 57 | –
CC(C)OC(=O)CS(=O)(=O)NC(CCc1cccc[n+]1[O-])C(=O)NCC(=O)NCc1cc(Cl)ccc1CN (stereo unspecified) | 0.53 | > 5 | > 5 | > 0.5 | 0.76 | – | – | – | – | – | – | – | –
CCOC(=O)CN[C@H](CCc1ccc(O)cc1)C(=O)N1CCC[C@H]1C(=O)NCc1cc(Cl)ccc1CN | 0.0036 | > 5 | > 5 | > 0.5 | 17 | 8.9 | – | – | – | – | 0.58 | 0.23 | 0.85
NCc1ccc(Cl)cc1CNC(=O)CNC(=O)C(CCc1cccc[n+]1[O-])NC(=O)CC(=O)O (stereo unspecified) | 140 | > 5 | > 5 | > 0.5 | – | – | – | – | – | – | – | – | –
CCOC(=O)CN[C@H](CCc1ccccn1)C(=O)N1CCC[C@H]1C(=O)NCc1cc(Cl)ccc1CN | 0.0038 | > 5 | > 5 | > 0.5 | – | 2.4 | – | – | – | – | 0.23 | 0.09 | 0.6
N=C(N)c1ccc(CNC(=O)CNC(=O)[C@@H](CCc2cccc[n+]2[O-])NS(=O)(=O)Cc2ccccc2)cc1 | 2.7 | – | – | 0.0063 | 0.32 | – | – | – | – | – | – | – | –
NCc1ccc(Cl)cc1CNC(=O)CNC(=O)C(CCc1cccc[n+]1[O-])NCC(=O)O (stereo unspecified) | 125 | > 5 | > 5 | > 0.5 | – | – | – | – | – | – | 6 | >100 | 3.3
NCc1ccc(Cl)cc1CNC(=O)[C@@H]1CCCN1C(=O)[C@@H](CCc1ccccn1)NCC(=O)O | – | > 5 | > 5 | > 0.5 | – | 5 | – | – | – | – | 0.16 | 0.03 | 0.35
COC(=O)C(=O)NC(CCc1cccc[n+]1[O-])C(=O)NCC(=O)NCc1cc(Cl)ccc1CN (stereo unspecified) | 6.5 | > 5 | > 5 | > 0.5 | 4.9 | – | – | – | – | – | – | – | –
NCc1ccc(Cl)cc1CNC(=O)CNC(=O)C(CCc1cccc[n+]1[O-])NC(=O)C(=O)O (stereo unspecified) | 18 | > 5 | > 5 | > 0.5 | 4.9 | – | 30 | – | – | – | 1.85 | 15 | 0.13
O=C(CNC(=O)C(CCc1cccc[n+]1[O-])NS(=O)(=O)Cc1ccccc1)NCc1cccs1 (stereo unspecified) | 140 | > 5 | > 5 | > 0.5 | 52 | – | – | – | – | – | – | – | –
Nc1ccc(CNC(=O)CNC(=O)C(CCc2cccc[n+]2[O-])NS(=O)(=O)Cc2ccccc2)cn1 (stereo unspecified) | 88 | > 5 | > 5 | > 0.5 | 21 | – | – | – | – | – | – | – | –

Now from value to compound, other results behind:

Ki (Prothrombin) [µM] | Ki [1] [µM] | Ki [2] [µM] | Ki (Trypsin) [µM] | Ki (Coagulation factor X) [nM] | Papp [6] [×10⁻⁶ cm/s] | half-life [7] [min] | bioavailability [8] [%] | CL_biliary (Rattus norvegicus) [%] | dose excreted [9] [%] | Structure (SMILES) | IC200 [3] [µM] | IC200 (Plasma [4]) [µM] | IC200 (Plasma [5]) [µM]
1.01 | > 5 | > 5 | > 0.5 | – | – | – | – | – | – | COC(=O)Cc1ccc(CS(=O)(=O)NC(CCc2cccc[n+]2[O-])C(=O)NCC(=O)NCc2cc(Cl)ccc2CN)cc1 (stereo unspecified) | – | – | –
0.0078 | > 5 | > 5 | > 0.5 | – | – | – | – | – | – | CCCCCCOC(=O)CN[C@H](CCc1cccc[n+]1[O-])C(=O)N1CCC[C@H]1C(=O)NCc1cc(Cl)ccc1CN | – | – | –
0.25 | > 5 | > 5 | > 0.5 | – | – | – | – | – | – | NCc1ccc(Cl)cc1CNC(=O)[C@H](CO)NC(=O)C(CCc1ccccn1)NS(=O)(=O)Cc1ccccc1 (stereo partly specified) | – | – | –
7.6 | > 5 | > 5 | > 0.5 | 2.55 | – | – | – | – | – | O=C(CNC(=O)C(CCc1cccc[n+]1[O-])NS(=O)(=O)Cc1ccccc1)NCc1cc(Cl)ccc1Cl (stereo unspecified) | – | – | –
0.0173 | > 5 | > 5 | > 0.5 | 0.94 | – | – | – | – | – | NCc1ccc(Cl)cc1CNC(=O)[C@@H]1CCCN1C(=O)[C@@H](CCc1cccc[n+]1[O-])NCC(=O)O | 0.32 | 0.17 | –
190 | > 5 | > 5 | > 0.5 | 53 | – | – | – | – | – | O=C(CNC(=O)C(CCc1cccc[n+]1[O-])NS(=O)(=O)Cc1ccccc1)NCc1ccc(Cl)s1 (stereo unspecified) | – | – | –
0.17 | > 5 | > 5 | > 0.5 | – | – | – | – | – | – | C[C@H](NC(=O)[C@@H](CCc1cccc[n+]1[O-])NS(=O)(=O)Cc1ccccc1)C(=O)NCc1cc(Cl)ccc1CN | – | – | –
40 | > 5 | > 5 | > 0.5 | 32 | – | – | – | – | – | NCc1ccccc1CNC(=O)CNC(=O)C(CCc1cccc[n+]1[O-])NS(=O)(=O)Cc1ccccc1 (stereo unspecified) | – | – | –
0.0077 | > 5 | > 5 | 0.061 | – | – | – | – | – | – | NCc1ccc(Cl)cc1CNC(=O)[C@@H]1CCCN1C(=O)[C@@H](CCc1cccc[n+]1[O-])NS(=O)(=O)CC(=O)O | 0.15 | 0.11 | –
0.17 | 150 | 930 | 6.5 | – | – | < 20 | < 5 | 75 | 15 | NCc1ccc(Cl)cc1CNC(=O)CNC(=O)[C@@H](CCc1cccc[n+]1[O-])NS(=O)(=O)Cc1ccccc1 | 0.16 | 0.5 | –
0.019 | > 5 | > 5 | > 0.5 | 0.87 | – | – | – | – | – | COC(=O)C(=O)NC(CCc1cccc[n+]1[O-])C(=O)N1CCC[C@H]1C(=O)NCc1cc(Cl)ccc1CN (stereo partly specified) | – | – | –
20 | > 5 | > 5 | > 0.5 | – | – | – | – | – | – | NCc1ccc(Cl)cc1CNC(=O)[C@H](CCC(=O)O)NC(=O)C(CCc1cccc[n+]1[O-])NS(=O)(=O)Cc1ccccc1 (stereo partly specified) | – | – | –
0.0177 | > 5 | > 5 | > 0.5 | 0.63 | – | – | – | – | – | COC(=O)C(=O)N[C@H](CCc1cccc[n+]1[O-])C(=O)N1CCC[C@H]1C(=O)NCc1cc(Cl)ccc1CN | 0.3 | 0.13 | 0.79
0.00056 | > 5 | > 5 | 0.019 | – | – | – | – | – | – | NCc1ccc(Cl)cc1CNC(=O)[C@@H]1CCCN1C(=O)[C@@H](CCc1cccc[n+]1[O-])NS(=O)(=O)Cc1ccccc1 | – | – | –
0.93 | > 5 | > 5 | > 0.5 | – | – | – | – | – | – | NCc1ccc(Cl)cc1CNC(=O)CNC(=O)C(CCc1cccc[n+]1[O-])NS(=O)(=O)Cc1ccc(CC(=O)O)cc1 (stereo unspecified) | 0.49 | 1.2 | 0.29
– | > 5 | > 5 | > 0.5 | – | – | – | – | – | – | NCc1ccc(Cl)cc1CNC(=O)[C@H](CO)NC(=O)[C@@H](CCc1cccc[n+]1[O-])NS(=O)(=O)Cc1ccccc1 | – | – | –
10 | > 5 | > 5 | > 0.5 | 3.3 | – | – | – | – | – | O=C(CNC(=O)[C@@H](CCc1cccc[n+]1[O-])NS(=O)(=O)Cc1ccccc1)NCc1cccc(Cl)c1 | – | – | –
